# Results: US7989464B2, “mGluR1 antagonists as therapeutic agents” (Schering Corporation, priority 2004, dated 2011)
# Molecular target: T1, hmGluR1 receptor (Homo sapiens, UniProt Q13255)
# T1 construct: expressed in transfected cells
# Assay: IC50 determination: intracellular calcium mobilization (FLIPR) upon Quisqualate stimulation in CHO cells stably expressing hmGluR1
# Format: cell-based
# Conditions: against Quisqualate 1 μM (EC80), FLIPR calcium mobilization, read-out: IC50 Class
# Method in brief: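 CHO cells stably expressing hmGluR1 were kept overnight in DMEM high glucose with GPT and 1 mM pyruvate, then loaded 2 h with Calcium 3 dye.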
# T1 sequence (Q13255 19-1194): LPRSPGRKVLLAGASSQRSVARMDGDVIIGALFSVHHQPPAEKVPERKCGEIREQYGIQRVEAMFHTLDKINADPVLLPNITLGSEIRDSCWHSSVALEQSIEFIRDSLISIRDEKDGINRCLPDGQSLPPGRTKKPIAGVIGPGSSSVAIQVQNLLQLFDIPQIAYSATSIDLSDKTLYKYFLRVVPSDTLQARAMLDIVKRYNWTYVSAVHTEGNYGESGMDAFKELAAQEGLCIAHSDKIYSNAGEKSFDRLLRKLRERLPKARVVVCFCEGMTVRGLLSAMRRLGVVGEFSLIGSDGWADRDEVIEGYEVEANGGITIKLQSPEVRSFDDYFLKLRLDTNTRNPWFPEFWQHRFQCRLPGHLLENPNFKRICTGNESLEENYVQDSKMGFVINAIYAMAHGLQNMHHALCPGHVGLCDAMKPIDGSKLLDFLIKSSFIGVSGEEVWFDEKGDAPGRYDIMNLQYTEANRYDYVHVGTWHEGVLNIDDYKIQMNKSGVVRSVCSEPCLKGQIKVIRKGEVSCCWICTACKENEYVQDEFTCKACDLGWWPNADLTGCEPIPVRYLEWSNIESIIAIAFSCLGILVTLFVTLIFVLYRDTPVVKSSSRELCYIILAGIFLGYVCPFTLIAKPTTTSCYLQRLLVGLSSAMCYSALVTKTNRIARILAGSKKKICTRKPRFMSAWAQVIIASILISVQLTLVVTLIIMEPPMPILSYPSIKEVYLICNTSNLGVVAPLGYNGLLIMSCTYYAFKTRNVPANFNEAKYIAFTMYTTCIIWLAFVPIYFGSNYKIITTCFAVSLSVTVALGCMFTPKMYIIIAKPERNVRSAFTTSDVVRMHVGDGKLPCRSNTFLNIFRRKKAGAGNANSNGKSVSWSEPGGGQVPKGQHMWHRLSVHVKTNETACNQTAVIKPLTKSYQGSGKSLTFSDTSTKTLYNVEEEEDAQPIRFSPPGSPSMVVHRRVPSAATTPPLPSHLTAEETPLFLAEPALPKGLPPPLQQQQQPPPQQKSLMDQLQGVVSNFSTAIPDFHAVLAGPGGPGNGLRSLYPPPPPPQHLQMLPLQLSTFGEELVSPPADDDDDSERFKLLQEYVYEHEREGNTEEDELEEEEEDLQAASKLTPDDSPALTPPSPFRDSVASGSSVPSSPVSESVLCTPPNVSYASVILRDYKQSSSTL
row,Compound,IC50 [nM]
1,Cc1ccc(-n2cnc3c(sc4nccc(C(C)C)c43)c2=O)cc1 [29F],< 50
2,COc1ccc(-n2cnc3c(sc4nccc(NCC(F)(F)F)c43)c2=O)c(F)c1 [28BM],50 to 150
3,CN(c1ncnc2sc3c(=O)n(-c4ccc(Cl)cc4)cnc3c12)C1CC1 [95DU],< 50
4,COc1ccc(-n2cnc3c(sc4nccc(Nc5ccccn5)c43)c2=O)cc1 [28FO],150 to 1000
5,CC(O)CCNc1ccnc2sc3c(=O)n(-c4ccc(F)cc4)cnc3c12 (stereo not shown) [28HN],< 50
6,COc1ccc(-n2cnc3c(sc4ncc(Cl)c(N(C)C)c43)c2=O)cc1 [compound 197],< 50
7,O=c1c2sc3ncnc(NC4CC4)c3c2ncn1-c1ccc(Br)cc1F [95AX],50 to 150
8,COc1ccc(Nc2ncnc3sc4c(=O)n(-c5ccc(F)cc5)cnc4c23)cc1 [95GK],> 1000
9,CN(C)c1cccc2sc3c(=O)n(-c4cccc(F)c4)cnc3c12 [103M],150 to 1000
10,CCN(C)c1ccnc2sc3c(=O)n(-c4ccc5c(c4)OCCO5)cnc3c12 [28CG],< 50
11,Cc1ccc(-n2cnc3c(sc4ncc(Br)c(NCCN)c43)c2=O)cc1 [28FM],150 to 1000
12,CCN(C)c1ccnc2sc3c(=O)n(-c4ccc(OC)cc4C)cnc3c12 [28BV],< 50
13,O=c1c2sc3ncnc(NCC4CC4)c3c2ncn1-c1ccc(Br)cc1 [95DS],150 to 1000
14,Nc1c([N+](=O)[O-])cnc2sc3c(=O)n(C4CCCCC4)cnc3c12 [compound 174],150 to 1000
15,Cc1ccc(-n2cnc3c(sc4nc(S)nc(N)c43)c2=O)cc1 [71F],< 50
16,O=c1c2sc3nccc(NC4CC4)c3c2ncn1-c1ccc(O)cc1 [28HS],< 50
17,O=c1c2sc3ncnc(NC4CCC4)c3c2ncn1-c1ccc(F)cc1 [95DF],150 to 1000
18,C=C(C)CNc1ncnc2sc3c(=O)n(-c4ccc(Br)cc4)cnc3c12 [95FA],< 50
19,CN(N)c1ccnc2sc3c(=O)n(-c4ccc(Cl)cc4)cnc3c12 [28DM],> 1000
20,CON(C)c1ccnc2sc3c(=O)n(-c4ccc(Cl)cc4)cnc3c12 [28DN],< 50
21,COc1ccc(-n2cnc3c(sc4ncc(Br)c(N)c43)c2=O)cc1 [173B],< 50
22,CNc1ncnc2sc3c(=O)n(-c4ccc(OC)c(F)c4)cnc3c12 [95BF],< 50
23,CNc1ccnc2sc3c(=O)n(-c4ccc5occc5c4)cnc3c12 [28BH],< 50
24,Cc1ccc(-n2cnc3c(sc4ncc(C(=O)N5CCNCC5)cc43)c2=O)cc1 [205B],> 1000
25,COc1ccnc2sc3c(=O)n(-c4ccc(Br)cc4)cnc3c12 [28FR],< 50

row,Compound,IC50 [nM]
1,Cc1ccc(-n2cnc3c(sc4nc(C(F)(F)F)nc(N)c43)c2=O)cc1 [71E],> 1000
2,Cc1ccc(-n2cnc3c(sc4nc(N5CCCC5)nc(N)c43)c2=O)cc1 [71C],> 1000
3,O=c1c2sc3nccc(OCCO)c3c2ncn1-c1ccc(Cl)cc1 [66H],> 1000
4,O=c1c2sc3nccc(NCCCCO)c3c2ncn1-c1ccc(Br)cc1 [28GV],< 50
5,CC(O)c1ccnc2sc3c(=O)n(-c4ccc(Cl)cc4)cnc3c12 (stereo not shown) [compound 185],50 to 150
6,CNc1ncnc2sc3c(=O)n(-c4ccc(OC)cc4F)cnc3c12 [95BI],< 50
7,Cc1ccc(-n2cnc3c(sc4nccc(NCCCO)c43)c2=O)cc1 [28CX],< 50
8,COc1ccc(-n2cnc3c(sc4nccc(N(C)CCO)c43)c2=O)cc1 [28HJ],< 50
9,COc1ccc(-n2cnc3c(sc4ncnc(NCc5ccco5)c43)c2=O)cc1 [95GQ],150 to 1000
10,CC(CO)Nc1ccnc2sc3c(=O)n(-c4ccc(Br)cc4)cnc3c12 (stereo not shown) [28HC],50 to 150
11,Cc1ccc(-n2cnc3c(sc4ncc(Br)c(Cl)c43)c2=O)cc1 [compound 171],> 1000
12,C=CCNc1ccnc2sc3c(=O)n(-c4ccc(OC)cc4)cnc3c12 [28DS],< 50
13,O=c1c2sc3ncnc(NCC(F)(F)F)c3c2ncn1-c1ccc(Cl)cc1 [95EF],< 50
14,CN(CCO)c1ccnc2sc3c(=O)n(-c4ccc(Cl)cc4)cnc3c12 [28HG],< 50
15,COc1ccc(-n2cnc3c(sc4nccc(OC)c43)c2=O)c(C)c1 [28BL],> 1000
16,C=C(C)CNc1ncnc2sc3c(=O)n(-c4ccc5sccc5c4)cnc3c12 [95FE],< 50
17,CCc1ccnc2sc3c(=O)n(-c4ccc(C)cc4)cnc3c12 [29G],< 50
18,Cc1ccc(-n2cnc3c(sc4nccc(NC5CC5)c43)c2=O)c(F)c1 [131M],50 to 150
19,Cc1nc(N)c2c(n1)sc1c(=O)n(-c3ccc(Cl)cc3)cnc12 [95EV],< 50
20,C=C(C)CNc1ccnc2sc3c(=O)n(-c4ccc(OC)cc4)cnc3c12 [28FB],< 50
21,C#CCN(C)c1ccnc2sc3c(=O)n(-c4ccc(Br)cc4)cnc3c12 [28DV],< 50
22,Cc1ccc(-n2cnc3c(sc4nccc(N(C)NS(C)(=O)=O)c43)c2=O)cc1 [73J],150 to 1000
23,CN(CC(O)CO)c1ccnc2sc3c(=O)n(-c4ccc(Br)cc4)cnc3c12 (stereo not shown) [28HU],< 50
24,CNc1cccc2sc3c(=O)n(-c4ccc(Cl)cc4)cnc3c12 [103R],150 to 1000
25,O=c1c2sc3nccc(N4CCC4)c3c2ncn1-c1ccc(Cl)cc1 [28GJ],50 to 150

# Same assay, conditions: against Quisqualate 1 μM (EC80), FLIPR calcium mobilization, read-out: mGluR1 IC50
row,Compound,IC50 [nM]
1,CNc1ncnc2sc3c(=O)n(-c4ccc(OC)cc4F)cnc3c12 [95BI],28.3
2,C=CCNc1ccnc2sc3c(=O)n(-c4ccc(OC)cc4)cnc3c12 [28DS],1.95
3,C#CCN(C)c1ccnc2sc3c(=O)n(-c4ccc(Br)cc4)cnc3c12 [28DV],1.87

# Same assay, conditions: against Quisqualate 1 μM (EC80), class symbols, read-out: mGIuR 1 IC50
row,Compound,IC50 [nM]
1,CN(C)c1ccnc2sc3c(=O)n(CCO)cnc3c12 [15A],> 1000
2,CCc1nc2c(sc3nccc(N(C)C)c32)c(=O)n1-c1ccc(C)cc1 [116A],50 to 150
3,CCCc1nc2c(sc3nccc(N(C)C)c32)c(=O)n1-c1ccc(C)cc1 [116B],150 to 1000
4,Cc1ccc(-n2cnc3c(sc4nc(N5CCOCC5)cc(N(C)C)c43)c2=O)cc1 [59C],> 1000
5,CN(C)c1ccnc2sc3c(=O)n(-c4ccc5[nH]ncc5c4)cnc3c12 [7AN],150 to 1000
6,Cc1cc(F)cc(-n2cnc3c(sc4nccc(N(C)C)c43)c2=O)c1 [7DX],< 50
7,CN(C)c1ccnc2sc3c(=O)n(-c4ccc5c(c4)CCC5)cnc3c12 [7BI],< 50
8,C=CCNc1ccnc2sc3c(=O)n(C4CCCCC4)cnc3c12 [72B],< 50
9,CC(=O)c1c(C)nc2sc3c(=O)n(-c4ccccc4)cnc3c2c1-c1ccc(Cl)cc1 [P-9],150 to 1000
10,CCCn1cnc2c(sc3nccc(N(C)C)c32)c1=O [15L],> 1000
11,CCCN(C)c1ccnc2sc3c(=O)n(-c4ccc(C)cc4)c(C)nc3c12 [113M],50 to 150
12,COc1ccc(-n2cnc3c(sc4nccc(N5CCC5)c43)c2=O)cc1 [28AM],50 to 150
13,CN(C)c1ccnc2sc3c(=O)n(-c4csc5ccccc45)cnc3c12 [15AG],< 50
14,CNc1ccnc2sc3c(=O)n(C4CCCCC4)cnc3c12 [28X],< 50
15,CN(C)c1ccnc2sc3c(=O)n(Nc4ccccc4)cnc3c12 [60B],< 50
16,Cc1ccc(-n2cnc3c([nH]c4nccc(N(C)C)c43)c2=O)cc1 [135A],> 1000
17,CCN(C)c1ccnc2sc3c(=O)n(-c4ccc(OC)cc4)cnc3c12 [7CE],< 50
18,CN(C)c1ccnc2sc3c(=O)n(-c4nnc(C(F)(F)F)s4)cnc3c12 [15AF],150 to 1000
19,CN(C)c1ccnc2sc3c(=O)n(-c4ccc5c(c4)CC(=O)N5)cnc3c12 [7BE],> 1000
20,CCCOc1ccc(-n2cnc3c(sc4nccc(N(C)C)c43)c2=O)cc1 [7AG],> 1000
21,CN(C)c1ccnc2sc3c(=O)n(-c4cccc(O)c4)cnc3c12 [7AV],< 50
22,CCNc1ncnc2sc3c(=O)n(-c4ccc(C)nc4)cnc3c12 [95AB],150 to 1000
23,CN(C)c1ccnc2sc3c(=O)n(-c4ccc5c(c4)NC(=O)CO5)cnc3c12 [7BO],< 50
24,Cc1ccc(-n2cnc3c(sc4nccc(NCCO)c43)c2=O)cc1 [28AV],< 50

row,Compound,IC50 [nM]
1,C#CCNc1ccnc2sc3c(=O)n(C4CCCCC4)cnc3c12 [72G],< 50
2,CCN(C)c1ncnc2sc3c(=O)n(-c4ccc5ncsc5c4)cnc3c12 [95I],< 50
3,CCN(C)c1ncnc2sc3c(=O)n(-c4ccc(OC(F)F)cc4)cnc3c12 [95T],< 50
4,CC(C)Oc1ccc(-n2cnc3c(sc4nccc(N(C)C)c43)c2=O)cc1 [7AQ],> 1000
5,Cc1ccc(-n2cnc3c(sc4nccc(N(C)C)c43)c2=O)cc1Cl [7DG],< 50
6,O=c1c2sc3nccc(NC4CCCC4)c3c2ncn1C1CCCCC1 [28T],> 1000
7,CCCN(CCC)c1ccnc2sc3c(=O)n(C4CCCCC4)cnc3c12 [28K],> 1000
8,O=c1c2sc3nccc(NC4CCCCC4)c3c2ncn1-c1ccc(Cl)cc1 [28B],> 1000
9,CCc1ccc(-n2cnc3c(sc4nccc(N(C)C)c43)c2=O)cc1 [7BJ],< 50
10,CN(C)c1ccnc2sc3c(=O)n(-c4ccc5ncoc5c4)cnc3c12 [7BS],< 50
11,Cc1ccc(-n2c(C(F)(F)F)nc3c(sc4nccc(N(C)C)c43)c2=O)cc1 [117A],150 to 1000
12,CN(C)c1c(C#N)cnc2sc3c(=O)n(C4CCCCC4)cnc3c12 [compound 46],< 50
13,Cc1ccc(-n2cnc3c(sc4nccc(OC5CCCC5)c43)c2=O)cc1 [66C],> 1000
14,COc1cc(O)nc2sc3c(=O)n(C4CCCCC4)cnc3c12 [compound 80],> 1000
15,O=c1c2sc3nccc(NC4CCCCC4)c3c2ncn1-c1ccccc1 [28D],> 1000
16,Cc1cc(N(C)C)c2c(n1)sc1c(=O)n(-c3ccc(Cl)cc3)cnc12 [7CM],< 50
17,CNc1ccnc2sc3c(=O)n(-c4ccc(O)cc4)cnc3c12 [7CD],< 50
18,C#CCn1cnc2c(sc3nccc(N(C)C)c32)c1=O [7BH],> 1000
19,Cc1nc2cc(-n3cnc4c(sc5nccc(N(C)C)c54)c3=O)ccc2s1 [7AT],> 1000
20,COc1ccc(-n2cnc3c(sc4nccc(NCC(F)(F)F)c43)c2=O)cc1 [28AW],< 50
21,Cc1ccc(-n2cnc3c(sc4nccc(N(C)C)c43)c2=O)cc1I [7DY],50 to 150
22,O=c1c2sc3nc(-c4cccs4)cc(C(F)(F)F)c3c2ncn1-c1ccccc1 [P-14],150 to 1000
23,CN(C)c1ccnc2c1c1ncn(-c3ccc4ncsc4c3)c(=O)c1n2C [134E],> 1000
